Here are results for 10 molecules from the supplement of paper PMC8960247.

The structures appear in SMILES notation. Structures can show the parent of a compound that is named as a salt. ± gives the standard error.

One test has as its system 621-102 (TSC2-deficient). The experiment in a line: relative viability vs DMSO; higher = less cytotoxic. Conditions: serum: 10% FBS, 72 h.
For the next test, the system named is 621-103 (TSC2-rescued). The description is as above. Conditions: serum: 10% FBS, 72 h.
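Further: immortalized renal angiomyolipoma cells stably carrying empty vector or TSC2, dosed in 384-well plates in DMEM, viability normalized to vehicle-treated wells within each plate.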

As for `CCN1CCN(C(=O)Cc2ccc(Nc3ncc(F)c(Nc4ccc(C(=O)Nc5ccccc5Cl)cc4)n3)cc2)CC1` [Aurora A Inhibitor I], the relative viability amounted to 105.83 ± 0.089% in the test with 621-102 (TSC2-deficient) (0.0001 µM); 113 ± 3.6% in the test on 621-102 (TSC2-deficient) (0.001 µM); 114 ± 3.2% with 621-102 (TSC2-deficient) (0.01 µM); 105 ± 2.2% with 621-102 (TSC2-deficient) (0.1 µM); 104 ± 1.4% in the test on 621-102 (TSC2-deficient) (1 µM); 0.786 ± 0.16% in the test on 621-102 (TSC2-deficient) (10 µM). Also, the relative viability in the test on 621-103 (TSC2-rescued) (0.0001 µM) was 101 ± 0.28%; in the test on 621-103 (TSC2-rescued) (0.001 µM) it was 100.7 ± 0.54%; with 621-103 (TSC2-rescued) (0.01 µM) it was 98.55 ± 0.77%; in the test with 621-103 (TSC2-rescued) (0.1 µM) it was 99.54 ± 0.75%; in the test on 621-103 (TSC2-rescued) (1 µM), 87.1 ± 2.3%; with 621-103 (TSC2-rescued) (10 µM) it was 0.915 ± 0.027%.

With `Cc1nnc(C(C)C)n1[C@H]1C[C@H]2CC[C@@H](C1)N2CC[C@H](NC(=O)C1CCC(F)(F)CC1)c1ccccc1` [Maraviroc (Selzentry)], the relative viability with 621-102 (TSC2-deficient) (0.0001 µM) amounted to 94.8 ± 3.3%; with 621-102 (TSC2-deficient) (0.001 µM), 106 ± 1.5%; in the test with 621-102 (TSC2-deficient) (0.01 µM) it was 107 ± 2.3%; with 621-102 (TSC2-deficient) (0.1 µM), 101 ± 2.6%; with 621-102 (TSC2-deficient) (1 µM), 108.3 ± 0.76%; in the test on 621-102 (TSC2-deficient) (10 µM) it was 107 ± 1.8%. Also, the relative viability in the test with 621-103 (TSC2-rescued) (0.0001 µM) was 100.6 ± 0.78%; with 621-103 (TSC2-rescued) (0.001 µM), 101 ± 2.7%; with 621-103 (TSC2-rescued) (0.01 µM), 99.264 ± 0.066%; in the test with 621-103 (TSC2-rescued) (0.1 µM) it was 103 ± 2.9%; in the test with 621-103 (TSC2-rescued) (1 µM), 98.1 ± 1.4%; in the test with 621-103 (TSC2-rescued) (10 µM), 97.2 ± 1.1%.

On to `CNC[C@H](O)c1ccc(O)c(O)c1` [Epinephrine bitartrate], for which the relative viability turned out to be 119 ± 1.4% in the test on 621-102 (TSC2-deficient) (0.0001 µM); 118 ± 1.5% in the test on 621-102 (TSC2-deficient) (0.001 µM); 105 ± 4% in the test with 621-102 (TSC2-deficient) (0.01 µM); 101 ± 2.4% in the test with 621-102 (TSC2-deficient) (0.1 µM); 103 ± 1.3% in the test with 621-102 (TSC2-deficient) (1 µM); 100 ± 1.5% in the test with 621-102 (TSC2-deficient) (10 µM). Moreover, the relative viability with 621-103 (TSC2-rescued) (0.0001 µM) stood at 102 ± 2.1%; in the test with 621-103 (TSC2-rescued) (0.001 µM), 95.4 ± 4.3%; in the test with 621-103 (TSC2-rescued) (0.01 µM), 93.4 ± 4.4%; in the test on 621-103 (TSC2-rescued) (0.1 µM), 92.99 ± 0.3%; in the test on 621-103 (TSC2-rescued) (1 µM) it was 96 ± 1.2%; with 621-103 (TSC2-rescued) (10 µM), 95.31 ± 0.25%.

Regarding `CC1=NN(c2ccc(C)c(C)c2)C(=O)/C1=N\Nc1cccc(-c2cccc(C(=O)O)c2)c1O`, the relative viability with 621-102 (TSC2-deficient) (0.0001 µM) is 106.5 ± 0.35%; in the test with 621-102 (TSC2-deficient) (0.001 µM), 104 ± 3.9%; in the test with 621-102 (TSC2-deficient) (0.01 µM) it was 98.5 ± 2.5%; in the test with 621-102 (TSC2-deficient) (0.1 µM), 108.4 ± 0.85%; in the test on 621-102 (TSC2-deficient) (1 µM), 100.7 ± 0.44%; with 621-102 (TSC2-deficient) (10 µM), 83.7 ± 3.2%. The relative viability in the test on 621-103 (TSC2-rescued) (0.0001 µM) is 99.1 ± 1.1%; in the test on 621-103 (TSC2-rescued) (0.001 µM), 103 ± 3.9%; in the test with 621-103 (TSC2-rescued) (0.01 µM) it was 100.9 ± 0.81%; in the test on 621-103 (TSC2-rescued) (0.1 µM), 99.8 ± 1%; in the test on 621-103 (TSC2-rescued) (1 µM), 106.9 ± 0.69%; in the test on 621-103 (TSC2-rescued) (10 µM) it was 90.7 ± 4%.

Regarding `CN1CCN(c2c(F)cc3c(=O)c(C(=O)O)cn(CCF)c3c2F)CC1` [Fleroxacin (Quinodis)], the relative viability was 104 ± 1.2% in the test with 621-102 (TSC2-deficient) (0.0001 µM); 111 ± 3.5% in the test on 621-102 (TSC2-deficient) (0.001 µM); 102 ± 2.7% with 621-102 (TSC2-deficient) (0.01 µM); 91.53 ± 0.47% in the test on 621-102 (TSC2-deficient) (0.1 µM); 90.9 ± 1.1% with 621-102 (TSC2-deficient) (1 µM); 91.6 ± 4.7% with 621-102 (TSC2-deficient) (10 µM). Further, the relative viability with 621-103 (TSC2-rescued) (0.0001 µM) amounted to 96.7 ± 2.6%; in the test with 621-103 (TSC2-rescued) (0.001 µM), 92.52 ± 0.83%; in the test with 621-103 (TSC2-rescued) (0.01 µM), 92.3 ± 1.4%; in the test with 621-103 (TSC2-rescued) (0.1 µM), 98.4 ± 1.5%; in the test with 621-103 (TSC2-rescued) (1 µM) it was 105 ± 5%; with 621-103 (TSC2-rescued) (10 µM) it was 109 ± 1.7%.

`N[C@@H](CC(=O)N1CCn2c(nnc2C(F)(F)F)C1)Cc1cc(F)c(F)cc1F` [Sitagliptin phosphate]: the relative viability was found to be 98.7 ± 0.22% in the test with 621-102 (TSC2-deficient) (0.0001 µM); 104.4 ± 0.16% in the test on 621-102 (TSC2-deficient) (0.001 µM); 103 ± 2.5% in the test with 621-102 (TSC2-deficient) (0.01 µM); 94 ± 4.4% with 621-102 (TSC2-deficient) (0.1 µM); 96.2 ± 1.3% with 621-102 (TSC2-deficient) (1 µM); 91.46 ± 0.51% in the test with 621-102 (TSC2-deficient) (10 µM). Also, the relative viability in the test with 621-103 (TSC2-rescued) (0.0001 µM) amounted to 97.02 ± 0.71%; with 621-103 (TSC2-rescued) (0.001 µM) it was 97.6 ± 1.3%; in the test with 621-103 (TSC2-rescued) (0.01 µM) it was 98.68 ± 0.34%; with 621-103 (TSC2-rescued) (0.1 µM) it was 100 ± 2%; with 621-103 (TSC2-rescued) (1 µM), 98.8 ± 2.4%; in the test on 621-103 (TSC2-rescued) (10 µM), 101 ± 0.53%.

Take `CC(O)(CS(=O)(=O)c1ccc(F)cc1)C(=O)Nc1ccc(C#N)c(C(F)(F)F)c1` (stereo not given) [Bicalutamide (Casodex)]: the relative viability turned out to be 126 ± 1.3% in the test on 621-102 (TSC2-deficient) (0.0001 µM); 119 ± 3.4% in the test with 621-102 (TSC2-deficient) (0.001 µM); 112 ± 1.2% in the test on 621-102 (TSC2-deficient) (0.01 µM); 102 ± 2.8% with 621-102 (TSC2-deficient) (0.1 µM); 110.6 ± 0.79% with 621-102 (TSC2-deficient) (1 µM); 112 ± 1.8% in the test on 621-102 (TSC2-deficient) (10 µM). The relative viability with 621-103 (TSC2-rescued) (0.0001 µM) is 105.2 ± 0.55%; in the test on 621-103 (TSC2-rescued) (0.001 µM), 102 ± 1.1%; in the test with 621-103 (TSC2-rescued) (0.01 µM), 101.3 ± 0.41%; with 621-103 (TSC2-rescued) (0.1 µM), 102 ± 1.6%; with 621-103 (TSC2-rescued) (1 µM), 102.5 ± 0.88%; in the test with 621-103 (TSC2-rescued) (10 µM), 102 ± 1.1%.

For the molecule `CC(C)C(=O)Oc1ccc(CO)cc1[C@H](CCN(C(C)C)C(C)C)c1ccccc1` [Fesoterodine fumarate (Toviaz)], the relative viability in the test with 621-102 (TSC2-deficient) (0.0001 µM) is 97.3 ± 5.3%; with 621-102 (TSC2-deficient) (0.001 µM), 100.52 ± 0.035%; with 621-102 (TSC2-deficient) (0.01 µM), 102 ± 1.2%; in the test on 621-102 (TSC2-deficient) (0.1 µM) it was 109 ± 3.6%; in the test with 621-102 (TSC2-deficient) (1 µM), 93.13 ± 0.096%; in the test with 621-102 (TSC2-deficient) (10 µM), 94.5 ± 1.9%. The relative viability stood at 104 ± 1.1% in the test on 621-103 (TSC2-rescued) (0.0001 µM); 105 ± 3% in the test on 621-103 (TSC2-rescued) (0.001 µM); 106 ± 2.1% in the test on 621-103 (TSC2-rescued) (0.01 µM); 107 ± 5.6% in the test with 621-103 (TSC2-rescued) (0.1 µM); 101.2 ± 0.67% with 621-103 (TSC2-rescued) (1 µM); 95.413 ± 0.0029% in the test with 621-103 (TSC2-rescued) (10 µM).

Consider `Cc1cn(-c2cc(NC(=O)c3ccc(C)c(Nc4nccc(-c5cccnc5)n4)c3)cc(C(F)(F)F)c2)cn1` [Nilotinib], for which the relative viability with 621-102 (TSC2-deficient) (0.0001 µM) is 70 ± 0.81%; with 621-102 (TSC2-deficient) (0.001 µM), 71.8 ± 7.4%; in the test with 621-102 (TSC2-deficient) (0.01 µM), 70.7 ± 6.9%; in the test with 621-102 (TSC2-deficient) (0.1 µM) it was 96.2 ± 7.2%; with 621-102 (TSC2-deficient) (1 µM), 93 ± 6.9%; in the test on 621-102 (TSC2-deficient) (10 µM), 18.9 ± 7.6%. Besides, the relative viability in the test on 621-103 (TSC2-rescued) (0.0001 µM) stood at 82.55 ± 0.76%; with 621-103 (TSC2-rescued) (0.001 µM), 82.1 ± 1.1%; with 621-103 (TSC2-rescued) (0.01 µM) it was 89 ± 1.5%; in the test with 621-103 (TSC2-rescued) (0.1 µM), 90.4 ± 1.4%; with 621-103 (TSC2-rescued) (1 µM), 84.5 ± 4.6%; in the test on 621-103 (TSC2-rescued) (10 µM) it was 7.52 ± 0.28%.

For the molecule `CC1(C)CCC(c2ccc(Cl)cc2)=C(CN2CCN(c3ccc(C(=O)NS(=O)(=O)c4ccc(N[C@H](CCN5CCOCC5)CSc5ccccc5)c(S(=O)(=O)C(F)(F)F)c4)cc3)CC2)C1` [ABT-263 (Navitoclax)], the relative viability stood at 114 ± 3.6% in the test with 621-102 (TSC2-deficient) (0.0001 µM); 123 ± 7.2% in the test on 621-102 (TSC2-deficient) (0.001 µM); 116 ± 4.2% with 621-102 (TSC2-deficient) (0.01 µM); 104 ± 3.3% in the test with 621-102 (TSC2-deficient) (0.1 µM); 118.5 ± 0.83% with 621-102 (TSC2-deficient) (1 µM); 68.4 ± 0.82% with 621-102 (TSC2-deficient) (10 µM). Besides, the relative viability in the test on 621-103 (TSC2-rescued) (0.0001 µM) turned out to be 100.9 ± 0.9%; with 621-103 (TSC2-rescued) (0.001 µM) it was 98.3 ± 2.4%; in the test on 621-103 (TSC2-rescued) (0.01 µM) it was 98 ± 1.2%; in the test on 621-103 (TSC2-rescued) (0.1 µM) it was 98.6 ± 2%; with 621-103 (TSC2-rescued) (1 µM) it was 97.65 ± 0.41%; in the test with 621-103 (TSC2-rescued) (10 µM) it was 55.33 ± 0.17%.
